Experiments:
Puccinia recondita = assay: In vivo preventive test on Puccinia recondita (brown rust on wheat); conditions: 500 ppm, wheat plants sprayed 24 h before contamination, graded 12 days after contamination
Procedure: Wheat plants (“Scipion” variety), sown in starter cups on a 50/50 peat soil-pozzolana substrate and grown at 22° C., are treated at the 1-leaf stage (10 cm height) by spraying with the active ingredient prepared as described above. Plants, used as controls, are treated with the mixture of acetone/tween/DMSO/water not containing the active material. After 24 hours, the plants are contaminated by spraying the leaves with an aqueous suspension of Puccinia recondita spores (100 000 spores per ml). The spores are collected from an infected plant and are suspended in water to containing 2.5 ml/l of Tween 80 at 10%. […] Grading (% of efficacy) is carried out 12 days after the contamination, in comparison with the control plants.

Septoria tritici = assay: In vivo preventive test on Septoria tritici (leaf spot on wheat); conditions: 500 ppm, wheat plants sprayed 24 h before contamination, graded 24 days after contamination
Procedure: Wheat plants (“Scipion” variety), sown in starter cups on a 50/50 peat soil-pozzolana substrate and grown at 22° C., are treated at the 1-leaf stage (10 cm height) by spraying with the active ingredient prepared as described above. Plants, used as controls, are treated with the mixture of acetone/tween/DMSO/water not containing the active material. After 24 hours, the plants are contaminated by spraying the leaves with an aqueous suspension of cryopreserved Septoria tritici spores (500 000 spores per ml). The contaminated wheat plants are incubated for 72 hours at 18° C. and at 100% relative humidity, and then for 21 days at 90% relative humidity. Grading (% of efficacy) is carried out 24 days after the contamination, in comparison with the control plants.

Uromyces appendiculatus = assay: In vivo preventive test on Uromyces appendiculatus (bean rust); conditions: preventive, bean plants, dose of 500 ppm, grading 11 days after contamination
Procedure: Bean plants (“Saxa” variety), sown in starter cups on a 50/50 peat soil-pozzolana substrate and grown at 24° C., are treated at the 2-leaf stage (9 cm height) by spraying with the active ingredient prepared as described above. Plants, used as controls, are treated with the mixture of acetone/tween/DMSO/water not containing the active material. After 24 hours, the plants are contaminated by spraying the leaves with an aqueous suspension of Uromyces appendiculatus spores (150 000 spores per ml). The spores are collected from infected plants and are suspended in water containing 2.5 ml/1 of Tween 80 at 10%. […] Grading (% of efficacy) is carried out 11 days after the contamination, in comparison with the control plants.

[1] = tested on: Fusarium nivale (var. majus); assay: In vivo Fusarium nivale (var. majus) test (wheat)/preventive; conditions: 500 ppm, wheat plants, preventive, evaluated 5 days after inoculation
Procedure: • Solvent: 49 parts by weight of N,N-dimethylacetamide • Emulsifier: 1 part by weight of alkylaryl polyglycol ether To produce a suitable preparation of active compound, 1 part by weight of active compound or active compound combination is mixed with the stated amounts of solvent and emulsifier, and the concentrate is diluted with water to the desired concentration. To test for preventive activity, young plants are sprayed with the preparation of active compound or active compound combination at the stated rate of application. After the spray coating has been dried, the plants are slightly injured by using a sandblast and afterwards they are sprayed with a conidia suspension of Fusarium nivale (var. majus). The plants are placed in the greenhouse under a translucent incubation cabinet at a temperature of approximately 10° C. and a relative atmospheric humidity of approximately 100%.

Alternaria brassicae = assay: In vivo preventive test on Alternaria brassicae (leaf spot on radish); conditions: 500 ppm, radish plants sprayed 24 h before contamination, graded 6 days after contamination
Procedure: Radish plants (“Pernod Clair” variety), sown in starter cups on a 50/50 peat soil-pozzolana substrate and grown at 17° C., are treated at the cotyledon stage by spraying with the active ingredient prepared as described above. Plants, used as controls, are treated with the mixture of acetone/tween/DMSO/water not containing the active material. After 24 hours, the plants are contaminated by spraying the cotyledons with an aqueous suspension of Alternaria brassicae spores (50 000 spores per ml). The spores are collected from a 15-day-old culture. The contaminated radish plants are incubated at 20° C. and at 100% relative humidity. Grading (% of efficacy) is carried out 6 days after the contamination, in comparison with the control plants.

Botrytis cinerea = assay: In vivo preventive test on Botrytis cinerea (grey mould); conditions: 500 ppm, gherkin plants sprayed 24 h before contamination, graded 4 to 5 days after contamination
Procedure: Gherkin plants (“Vert petit de Paris” variety), sown in starter cups on a 50/50 peat soil-pozzolana substrate and grown at 24° C., are treated at the Z11 cotyledon stage by spraying with the active ingredient prepared as described above. Plants, used as controls, are treated with the mixture of acetone/tween/DMSO/water not containing the active material. After 24 hours, the plants are contaminated by spraying the cotyledons with an aqueous suspension of cryopreserved Botrytis cinerea spores (50 000 spores per ml). The spores are suspended in a nutrient solution composed of 10 g/L of PDB, 50 g/L of D-Fructose, 2 g/L of NH4NO3 and 1 g/L of KH2PO4. The contaminated gherkin plants are incubated at 17° C. and at 90% relative humidity.

Pyrenophora teres = assay: In vivo preventive test on Pyrenophora teres (net blotch on barley); conditions: graded 14 days after contamination; for Eff. %: 500 ppm, barley plants sprayed 24 h before contamination; for Efficacy: 100 ppm, barley plants, comparison with prior-art compound
Procedure: Barley plants (“Plaisant” variety), sown in starter cups on a 50/50 peat soil-pozzolana substrate and grown at 22° C., are treated at the 1-leaf stage (10 cm height) by spraying with the active ingredient prepared as described above. Plants, used as controls, are treated with the mixture of acetone/tween/DMSO/water not containing the active material. After 24 hours, the plants are contaminated by spraying the leaves with an aqueous suspension of Pyrenophora teres spores (12 000 spores per ml). The spores are collected from a 12-day-old culture. […] Grading (% of efficacy) is carried out 14 days after the contamination, in comparison with the control plants.

Sphaerotheca fuliginea = assay: In vivo preventive test on Sphaerotheca fuliginea (powdery mildew on cucurbits); conditions: 500 ppm, gherkin plants sprayed 24 h before contamination, graded 12 days after contamination
Procedure: Gherkin plants (“Vert petit de Paris” variety), sown in starter cups on a 50/50 peat soil-pozzolana substrate and grown at 24° C., are treated at the Z11 cotyledon stage by spraying with the active ingredient prepared as described above. Plants, used as controls, are treated with the mixture of acetone/tween/DMSO/water not containing the active material. After 24 hours, the plants are contaminated by spraying the cotyledons with an aqueous suspension of Sphaerotheca fuliginea spores (100 000 spores per ml). The spores are collected from infected plants. […] Grading (% of efficacy) is carried out 12 days after the contamination, in comparison with the control plants.

Phytophthora infestans = format: in vivo; conditions: 500 ppm, tomato plants sprayed 24 h before contamination, graded 5 days after contamination
[2] = logP by HPLC on reversed phase columns (EEC directive 79/831 Annex V.A8); format: physicochemical; conditions: method [a]: LC-MS at pH 2.7, 0.1% formic acid in water / acetonitrile; compounds of formula (I), Table 1
Phakopsora pachyrhizi = assay: In vivo Phakopsora test (soybeans)/preventive; conditions: 10 ppm, soybean plants, preventive, evaluated 7 days after inoculation
Procedure: To produce a suitable preparation of active compound, 1 part by weight of active compound is mixed with the stated amounts of solvent and emulsifier, and the concentrate is diluted with water to the desired concentration. To test for preventive activity, young plants are sprayed with the preparation of active compound at the stated rate of application. After the spray coating has dried on, the plants are inoculated with an aqueous spore suspension of the causal agent of soybean rust (Phakopsora pachyrhizi) and stay for 24 h without light in an incubation cabinet at approximately 24° C. and a relative atmospheric humidity of 95%. The plants remain in the incubation cabinet at approximately 24° C. and a relative atmospheric humidity of approximately 80% and a day/night interval of 12 h.

Pyricularia oryzae = format: in vivo; conditions: 500 ppm, rice plants sprayed 24 h before contamination, graded 6 days after contamination

Structure (SMILES)	Eff. % (Puccinia recondita) [%]	Eff. % (Septoria tritici) [%]	Eff. % (Uromyces appendiculatus) [%]	Eff. % [1] [%]	Eff. % (Alternaria brassicae) [%]	Eff. % (Botrytis cinerea) [%]	Eff. % (Pyrenophora teres) [%]	Eff. % (Sphaerotheca fuliginea) [%]	Eff. % (Phytophthora infestans) [%]	logP [2]	Eff. % (Phakopsora pachyrhizi) [%]	Efficacy (Pyrenophora teres)	Eff. % (Pyricularia oryzae) [%]
CC(C)OC1Cc2cccc(NC(=O)c3cn(C)nc3C(F)F)c2C1 (centres unmarked) [Example 2]	100	90	100	75									
CC(C)C1Cc2cccc(NC(=O)c3cn(C)nc3C(F)F)c2C1 (centres unmarked) [Example 3]	94	96	100		92	85	97	100					
CC1c2cccc(NC(=O)c3cn(C)nc3C(F)F)c2CC1(C)C (centres unmarked) [Example 5]	100	91			71	88		98	89				
CC1Cc2c(NC(=O)c3cn(C)nc3C(F)F)cccc2C1(C)C (centres unmarked) [Example 6]	100	95	98			95		100		3.55[a]	96		
Cc1nn(C)c(F)c1C(=O)Nc1cccc2c1CC(C)C2(C)C (centres unmarked) [Example 8]	100		100		79					3.52[a]		83%	83
CC1c2c(NC(=O)c3cn(C)nc3C(F)F)cccc2C(C)(C)C1C (centres unmarked) [Example 9]	100	90	100		94	100	97	100			84		
Cc1nn(C)c(C)c1C(=O)Nc1cccc2c1CC(C)(C)C2C (centres unmarked) [Example 13]	100		100		93		75			3.13[a]			83
Cc1nn(C)c(C)c1C(=O)Nc1cccc2c1C(C)C(C)C2(C)C (centres unmarked) [Example 16]	98		100			100				3.15[a]			
CC1Cc2c(NC(=O)c3cnn(C)c3C(F)(F)F)cccc2C1(C)C (centres unmarked) [Example 17]	98		100			94				3.73[a]			
CCC1Cc2cccc(NC(=O)c3cn(C)nc3C(F)F)c2C1 (centres unmarked) [Example 27]	100	100	100		79		97	100		3.35[a]			
CC1Cc2c(NC(=S)c3cn(C)nc3C(F)F)cccc2C1(C)C (centres unmarked) [Example 28]		83	100					100		3.85[a]			93
Cc1nn(C)c(F)c1C(=O)Nc1cccc2c1C(C)C(C)C2(C)C (centres unmarked) [Example 33]	98	97	100		92	100	97	100		3.52[a]		at least 80%	
CCC1Cc2c(NC(=O)c3c(C)nn(C)c3F)cccc2C1(C)C (centres unmarked) [Example 37]	100	71	100		90		83	100		3.99[a]			
